From patent US9221781B2, “Synthesis of polyhydroxy chromenone compounds and their anti-tumor effects” (BEIJING SHENOGEN PHARMA GROUP LTD., priority 2012, dated 2015)
Like-named read-outs stand apart in the source and are kept apart here.

Legend:
[1] = system: Molt-4 cells; assay: Inhibition of growth of acute lymphoblastic leukemia Molt-4 cells by MTT method; format: cell-based; conditions: 72 hours; for inhibition at 1 µM: Homo sapiens, 10^−6M, read-out: The inhibition percentage of cell proliferation by the compounds with a concentration of 10^−6M, Molt-4 cells
Method: B: Inhibition of Growth of Acute Lymphoblastic Leukemia Molt-4 Cells by the Compounds Detected by MTT Method
(§1) The acute lymphoblastic leukemia Molt-4 cells from ATCC were maintained in RPMI-1640 and 10% fetal calf serum at 37° C. in a 5% CO2 atmosphere. The cells were subseeded in a 96-well culture plate at a concentration of 6×10^3 cells/well and maintained RPMI-1640 and 10% fetal calf serum at 37° C. 5%CO2 atmosphere. Molt-4 cells were treated with a test compound dissolved in DMSO at the concentration of 0, 10^−4M, 10^−5M, 10^−6M, 10^−7M, 10^−8M for 72 hours. OD value was tested by MTT method, and the inhibition ratio was calculated.

[2] = system: K562 cells; assay: Viability of chronic leukemia cells K562 by CellTiter-Glo Luminescent Assay in vitro; format: cell-based, human; conditions: 72 hours, read-out: Inhibition of viability of cells in vitro IC50, K562 cells
Method: A: Detection of Viability of Chronic Leukemia Cells K562 by CellTiter-Glo® Luminescent Assay In Vitro
(§2) The chronic leukemia cells K562 from ATCC were maintained in IMDM and 10% fetal calf serum at 37° C. in a 5% CO2 atmosphere. The cells were subseeded in a 96-well culture plate at a cencentration of 6×10^3 cells/well.K562 cells were treated with a test compound dissolved in DMSO at the concentration of 0, 0.3 μM, 0.5 μM, 1 μM, 2 μM, 3 μM, 5 μM, 10 μM, 20 μM, 30 μM, 50 μM and 100 μM for 72 hours. Treated cells were examined by CellTiter-Glo® Luminescent Cell Viability Assay Kit (Promega), and luminescence were recorded with Envision.

[3] = system: Daudi cells; assay: Inhibition of human B lymphoma Daudi cells by CellTiter-Glo Luminescent Assay in vitro; format: cell-based; conditions: 72 hours, read-out: Inhibition of viability of cells in vitro IC50, Daudi cells
Method: A: Inhibition of Human B Lymphoma Daudi Cells by CellTiter-Glo® Luminescent Assay In Vitro
as §2, with “Human B Lymphoma Daudi” for “chronic leukemia”, “cells” for “cells K562”, “concentration” for “cencentration”, “cells/well. Human B Lymphoma Daudi” for “cells/well.K562”, “μM,” for “μM, 5 μM,”, “CeliTiter-Glo®” for “CellTiter-Glo®”

[4] = system: HL-60 cells; assay: Inhibition of growth of acute myeloblastic leukemia HL-60 cells by MTT method; format: cell-based, human; conditions: 72 hours; for inhibition at 1 µM: Homo sapiens, 10^−6M, read-out: The inhibition percentage of cell proliferation by the compounds with a concentration of 10^−6M, HL-60 cells
Method: A: Inhibition of Growth of Acute Myeloblastic Leukemia HL-60 Cells by the Compounds Detected by MTT Method
as §1, with “myeloblastic” for “lymphoblastic”, “HL-60” for “Molt-4”, “IMDM” for “RPMI-1640”, “cells/well. HL-60” for “cells/well and maintained RPMI-1640 and 10% fetal calf serum at 37° C. 5%CO2 atmosphere. Molt-4”

[5] = system: BEL-7402 cells; assay: Inhibition of liver cancer cell BEL-7402 in vitro by SRB; format: cell-based; conditions: Homo sapiens, 10^−6M, 72 hours, read-out: The inhibition percentage of cell proliferation by the compounds with a concentration of 10^−6M, BEL-7402 cells
Method: A: Inhibition of Liver Cancer Cell BEL-7402 In Vitro by the Compounds Detected by SRB
The liver cancer BEL-7402 cells from ATCC were maintained in DMDM, 10% NCS and 50 μg/ml KANA at 37° C. in a 5% CO2 atmosphere, and were subseeded in a 96-well culture plate at a concentration of 6×10^3 cells/well. BEL-7402 cells were treated with a test compound dissolved in DMSO at the concentration of 0, 10^−4M, 10^−5M, 10^−6M, 10^−7M, 10^−8M for 72 hours. OD value was tested by SRB method, and the inhibition percentage was calculated.

[6] = system: MDA-MB-231 cells; assay: CellTiter-Glo Luminescent Cell Viability Assay on ER-negative breast cancer MDA-MB-231 cells in vitro; format: cell-based; conditions: Homo sapiens, 72 hours, read-out: Inhibition of viability of breast cancer cells IC50, MDA-MB-231 cells
Method: A: CellTiter-Glo® Luminescent Cell Viability Assay on ER-Negative Breast Cancer MDA-MB-231 In Vitro:
MDA-MB-231 cells were maintained at 37° C., in a 5% CO2 atmosphere in DMEM and 10% fetal calf serum. The cells were placed at a density of 6×10^3 cells per well in a 96-well plate. MDA-MB-231 cells were treated with a test compound dissolved in DMSO at the concentration of 0, 0.3 μM, 0.5 μM, 1 μM, 2 μM, 3 μM, 5 μM, 10 μM, 20 μM, 30 μM, 50 μM and 100 μM for 72 hours. Treated cells were examined under CellTiter-Glo® Luminescent Cell Viability Assay Kit (Promega), and luminescence were recorded with Envision.

[7] = system: MCF7 cells; assay: CellTiter-Glo Luminescent Cell Viability Assay on ER-positive breast cancer MCF-7 cells in vitro; format: cell-based; conditions: Homo sapiens, 72 hours, read-out: Inhibition of viability of breast cancer cells IC50, MCF7 cells
Method: B: CellTiter-Glo® Luminescent Cell Viability Assay on ER-Positive Breast Cancer MCF-7 Cells In Vitro:
MCF7 cells from ATCC were maintained in an Dulbecco's modified Eagle medium (DMEM), and 10% fetal calf serum at 37 in a 5% CO2 atmosphere. Cells were placed at a density of 6×10^3 cells per well in a 96-well plate. MCF 7 cells were treated with a test compound dissolved in DMSO at the concentration of 0, 0.3 μM, 0.5 μM, 1 μM, 2 μM, 3 μM, 5 μM, 10 μM, 20 μM, 30 μM, 50 μM and 100 μM for 72 hours. Treated cells were examined through CellTiter-Glo® Luminescent Cell Viability Assay Kit (Promega), and luminescence were recorded with Envision.

Compound | IC50 [2] | IC50 [3] | IC50 [6] | IC50 ([2]; Homo sapiens) | IC50 ([3]; Homo sapiens) | IC50 [7] | The inhibition percentage of cell proliferation by the compounds with a concentration of 10^−6M, Molt-4 cells [1] | The inhibition percentage of cell proliferation by the compounds with a concentration of 10^−6M, HL-60 cells [4] | inhibition at 1 µM [5] | inhibition at 1 µM [1] | inhibition at 1 µM [4]
2-(4-fluorophenyl)-3-methoxy-5,7-dihydroxy-8-(3-methyl-2-buten-1-yl)-4H-chromen-4-one [Compound 11] | > 100 µM | > 100 µM |  |  |  |  | NA (NA means no activity, and inhibition percentage by the compound with a concentration of 10^−6M was below 10%.) | NA (NA means no activity, and inhibition percentage by the compound with a concentration of 10^−6M was below 10%.) |  |  | 
CC(C)=CCc1c(O)cc(O)c2c(=O)c(O)c(-c3ccc(F)cc3)oc12 [Compound 2, 2-(4-fluorophenyl)-3,5,7-trihydroxy-8-(3-methyl-2-buten-1-yl)-4H-chromen-4-one] |  |  | > 100 µM | 6.14 µM | 9.23 µM | 3.17 µM |  |  | 21.8% | < 10% | 
CC(C)=CCc1c(O)cc(O)c2c(=O)c(O)c(-c3ccc(Cl)c(F)c3)oc12 [Compound 3, 2-(3-fluoro-4-chlorophenyl)-3,5,7-trihydroxy-8-(3-methyl-2-buten-1-yl)-4H-chromen-4-one] |  |  | 2.87 µM | 1.85 µM | 2.91 µM | 8.6 µM |  |  | 28.6% | 14.4% | 28.5%
COc1cccc2c1C(=O)c1c(O)c3c(c(O)c1C2=O)C[C@@](O)(C(=O)CO)C[C@@H]3O[C@H]1C[C@H](N)[C@H](O)[C@H](C)O1 [Doxorubicin, reference compound] |  |  |  |  |  |  |  |  | 55.2% | 90.1% | 79%
Nc1ccn([C@@H]2O[C@H](CO)[C@@H](O)[C@@H]2O)c(=O)n1 [cytarabinen, reference compound] |  | 10 µM |  |  |  |  |  |  |  |  | 

Further lines, with some results ahead:

IC50 [2] | IC50 [3] | IC50 [6] | IC50 ([2]; Homo sapiens) | IC50 ([3]; Homo sapiens) | IC50 [7] | Compound | The inhibition percentage of cell proliferation by the compounds with a concentration of 10^−6M, Molt-4 cells [1] | The inhibition percentage of cell proliferation by the compounds with a concentration of 10^−6M, HL-60 cells [4] | inhibition at 1 µM [5] | inhibition at 1 µM [1] | inhibition at 1 µM [4]
 |  | 4.33 µM | 0.974 µM | 2.64 µM | 16 µM | CC(C)=CCc1c(O)cc(O)c2c(=O)c(O)c(-c3ccc(Cl)cc3)oc12 [Compound 4, 2-(4-chlorophenyl)-3,5,7-trihydroxy-8-(3-methyl-2-buten-1-yl)-4H-chromen-4-one] |  |  | 46.4% | 14.7% | 0.974%
 |  | 4.48 µM | 1.48 µM | 1.49 µM | 6.85 µM | CC(C)=CCc1c(O)cc(O)c2c(=O)c(O)c(-c3ccc(OC(F)(F)F)cc3)oc12 [Compound 5, 2-(4-trifluoromethoxyphenyl)-3,5,7-trihydroxy-8-(3-methyl-2-buten-1-yl)-4H-chromen-4-one] |  |  | 15.6% | 69.4% | 59.8%
 |  | 1.88 µM | 0.935 µM | 1.98 µM | 6.85 µM | CC(C)=CCc1c(O)cc(O)c2c(=O)c(O)c(-c3ccc(Cl)c(Cl)c3)oc12 [Compound 6, 2-(3,4-dichlorophenyl)-3,5,7-trihydroxy-8-(3-methyl-2-buten-1-yl)-4H-chromen-4-one] |  |  | 14.9% | 67.4% | 61.9%
 |  | 9.3 µM | 6.14 µM | 4.07 µM | 7.54 µM | CC(C)=CCc1c(O)cc(O)c2c(=O)c(O)c(-c3ccc(Cl)c(C(F)(F)F)c3)oc12 [Compound 7, 2-(3-trifluoromethyl-4-chlorophenyl)-3,5,7-trihydroxy-8-(3-methyl-2-buten-1-yl)-4H-chromen-4-one] |  |  | 19.8% | 57% | < 10%
 |  | > 100 µM |  |  | > 100 µM | COc1c(-c2ccc(C(F)(F)F)cc2)oc2c(CC=C(C)C)c(O)cc(O)c2c1=O [Compound 9, 2-(4-trifluoromethylphenyl)-3-methoxy-5,7-dihydroxy-8-(3-methyl-2-buten-1-yl)-4H-chromen-4-one] |  |  | 11.7% | < 10% | < 10%
 |  | > 100 µM | > 100 µM | 21.8 µM | 31.5 µM | COc1c(-c2ccc(F)c(F)c2)oc2c(CC=C(C)C)c(O)cc(O)c2c1=O [Compound 10, 2-(3,4-difluorophenyl)-3-methoxy-5,7-dihydroxy-8-(3-methyl-2-buten-1-yl)-4H-chromen-4-one] |  |  | 17.4% |  | 
